For 1 compound, Kd results are on record in paper PMC8510236, “Unraveling the Compositional and Molecular Features Involved in Lysozyme-Benzothiazole Derivative Interactions” (Molecules, 2021).

The target in this assay is T1, Lysozyme from chicken egg white (Gallus gallus, UniProt P00698).
T1 construct: gene LYZ
The assay is described as follows: isothermal titration calorimetry (VP-ITC). Type of assay: binding. The note with it: read-out: K. (Isothermal titration calorimetry measures the heat released or taken up as one component is titrated into another.)

pKd: −log10 of the molar value. Where a name gives a salt, the structure may show the parent alone.

T1 sequence (P00698 19-147): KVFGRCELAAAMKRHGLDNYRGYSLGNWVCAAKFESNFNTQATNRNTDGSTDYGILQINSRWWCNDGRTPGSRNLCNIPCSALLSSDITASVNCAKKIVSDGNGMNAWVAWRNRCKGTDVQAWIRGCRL

With `O=S(=O)(O)CCCSc1nc2ccccc2s1` [BTS, 3-(2-Benzohiazolylthio)-1-propane-sulfonic acid sodium salt], the pKd was 5.58.
